Data from patent US20050085553A1, “Remedies for mild recognition deflict” (priority 2001, published 2005).

Experiments:
insoluble Aβ42 = experiment: quantity of insoluble Aβ42 in cerebral cortex of transgenic mice with Swedish APP mutation (ELISA); assay type: in vivo, mouse; settings: feed containing 56 ppm (about 7 mg/kg/day) for six months, 13-14 month old mice
Experimental: (§1) An Effect on Increase in Insoluble Aβ40/42 and Amyloid Plaque Formation in the Brains of Transgenic Mice with Swedish APP Mutation
(§2) Transgenic mice with Swedish amyloid precursor protein (APP) mutation (7- to 8-month old) were given solid feed containing the compound A (56 ppm) (equivalent to a dosage of about 7 mg/kg/day) or control feed for six months. After six months from the administration, one cerebral hemisphere was used for brain histological examination and the other hemisphere was used for determining the quantity of Aβ40/42. Cerebral cortex was used for measuring the quantity of Aβ. The accumulation type of insoluble Aβ40/42 protein were extracted by homogenization of the cerebral cortex in 25 times amount of Tris buffer (containing a protease inhibitor) followed by centrifugation to remove the supernatant. Then, 19 times amount of 70% formic acid was added to the insoluble precipitation and homogenized to solubilize it. After centrifugation, the supernatant was diluted to 1/20 with 1M Tris solution for neutralization and the diluted supernatant was used for determining the quantity of Aβ40/42 contained therein. Using enzyme-linked immunosorbent assay (ELISA), the quantity of accumulation-type Aβ40/42 was measured.

insoluble Aβ40 = experiment: quantity of insoluble Aβ40 in cerebral cortex of transgenic mice with Swedish APP mutation (ELISA); assay type: in vivo, mouse; settings: feed containing 56 ppm (about 7 mg/kg/day) for six months, 13-14 month old mice
Experimental: as §1, §2

[1] = test system: transgenic mice with Swedish APP mutation; experiment: general condition of the mice during the drug administration period; assay type: in vivo, mouse; settings: feed containing 56 ppm (about 7 mg/kg/day) for six months
Experimental: as §2

amyloid plaques = experiment: number and area of amyloid plaques, brain sections immunostained with BAN50; assay type: in vivo, mouse; settings: feed containing 56 ppm (about 7 mg/kg/day) for six months; sections containing dorsal hippocampus
Experimental: as §1
as §2, with “measured. […]” for “measured.”

[2] = test system: Fisher344 rats (27-month old, male); experiment: water maze test, learning deficit in old rats; assay type: in vivo, rat; settings: 0.3 or 1.0 mg/kg orally once a day for 14 days
Experimental: An Ameliorative Effect of the Agent on Learning Deficit in Old Rats
Fisher344 rats (27-month old, male) were previously subjected to four trials of a water maze test using a pool with a diameter of 90 cm and a platform on the surface of water in the pool. The rats with remarkable disability to swim were excluded and the rest were divided into several groups. The compound A (0.3 or 1.0 mg/kg) was orally administered to the rats once a day for 14 days. On the 10th day, the rats were subjected to four trials of a water maze test using a platform on the surface of water in a pool and confirmed again that they had no difficulty in swimming ability. Starting from the next day, the rats were subjected four times a day for 3 days to a water maze test using a pool with a diameter of 120 cm and a platform submerged below the surface of water in the pool. In this test, the time required for the rats to arrive at the platform was measured. Two trials were expressed as one block. During the behavioral pharmacological test period, the drug was administered after the test.

With CN(C)CC[C@@H]1CCc2cc(OCc3ccc(-c4ccccc4)cc3)ccc2C1.Cl.O [compound A, (R)-(+)-6-(4-biphenylyl)methoxy-2-[2-(N,N-dimethylamino)ethyl]tetralin Hydrochloride Monohydrate] the “reduction of quantity of insoluble Aβ42 in contrast to the vehicle group” value (insoluble Aβ42) was “about 30%”, the “reduction of quantity of insoluble Aβ40 in contrast to the vehicle group” value (insoluble Aβ40) was “about 30%” and the “change in the general condition of the mice including weight loss” value [1] was “no change”. The “area of amyloid plaques, relative to the vehicle group” value (amyloid plaques) was ~35 % of those in the vehicle group, the “number of amyloid plaques, relative to the vehicle group” value (amyloid plaques) was “about 40 % of those in the vehicle group” and the “swimming time for escape” value ([2]; final training block, compared between the groups) was “significantly shortened”. The “time required to arrive at the platform” value ([2]; water maze, large pool (120 cm), submerged platform, vs old control group) was “significantly improved”.
